Laboratory results reported in patent US10183949B2, “Pyrimidinone derivative having autotaxin-inhibitory activity” (The University of Tokyo, priority 2014, dated 2019).

Molecular target: T1, Human autotaxin enzyme (Homo sapiens, UniProt Q13822)
T1 construct: purchased R&D System
Assay: Evaluation of autotaxin inhibitor, 18:0 Lyso PC / choline assay (Test Example 2)
Assay type: biochemical
Settings: human autotaxin enzyme, 18:0 Lyso PC substrate, choline assay, room temperature 2 hours; read-out: Inhibitor activity (IC50)
Procedure, shortened: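 Human autotaxin in 100 mM Tris-HCl pH 7.5, 150 mM NaCl, 5 mM MgCl2, 0.05% Triton X-100 reacted with 18:0 Lyso PC (200 μM stock) and test compound 2 h at room temperature. Released choline quantified via choline oxidase/peroxidase resorufin fluorescence (ex 531/em 598 nm, 20 min); inhibition vs no-compound and no-enzyme controls, concentration-response curve.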

SMILES	IC50 [µM]
CCNC(=O)N1CCC(NC(=O)c2cccc(Cn3cnc(-c4ccc(Cl)cc4NC(=O)C(C)(C)C)cc3=O)c2)CC1 [Compound I-0500]	0.01 to 0.1
CCS(=O)(=O)N1CCN(C(=O)c2cccc(Cn3cnc(-c4ccc(Cl)cc4NC(=O)C(C)(C)C)cc3=O)c2)CC1 [Compound I-0501]	0.01 to 0.1
